Data: US9056851B2, “Thiolactone antibiotics” (priority 2011, dated 2015)
≈ marks a conversion by molar mass, not a printed value.

Assays:
[1] = system: Y. pestis A1122; assay: microbe, parasite or virus in culture; type: cell-based; settings: Yersinia pestis, A1122, read-out: MIC (μg/ml) Y. pestis
[2] = system: S. aureus RN4220; assay: MIC against S. aureus RN4220 (MSSA); type: cell-based; settings: Staphylococcus aureus, MIC90, read-out: MIC (μg/ml) Staph. aureus RN4220 MSSA
[3] = system: M. tuberculosis H37Rv; assay: MIC against M. tuberculosis; type: cell-based; settings: Mycobacterium tuberculosis; MIC99; H37Rv; read-out: MIC (μg/ml) M. tb (MIC99)
[4] = system: S. aureus BAA1762; assay: MIC against S. aureus BAA1762 (MRSA); type: cell-based; settings: Staphylococcus aureus; MIC90; read-out: MIC (μg/ml) Staph. aureus BAA1762 MRSA
[5] = system: M. smegmatis MC^2155; assay: MIC against M. smegmatis; type: cell-based; settings: Mycolicibacterium smegmatis, MC^2155; MIC90; read-out: MIC (μg/ml) M. smeg
[6] = system: B. thialandensis Bt38; assay: MIC against B. thialandensis; type: cell-based; settings: read-out: MIC (μg/ml) B. thialandensis Bt.38 (efflux^−)
[7] = system: F. tularensis LVS; assay: microbe, parasite or virus in culture; type: cell-based; settings: Francisella tularensis, read-out: MIC (μg/ml) F. tu
[8] = system: B. pseudomallei Bp82z66; assay: microbe, parasite or virus in culture; type: cell-based; settings: Burkholderia pseudomallei, BP82Z66, read-out: MIC (μg/ml) B. pseudomallei
[9] = target: wild-type apo-KasA (Mycobacterium tuberculosis, UniProt P9WQD9); assay: biochemical; type: binding
Sequence of wild-type apo-KasA (P9WQD9 whole entry): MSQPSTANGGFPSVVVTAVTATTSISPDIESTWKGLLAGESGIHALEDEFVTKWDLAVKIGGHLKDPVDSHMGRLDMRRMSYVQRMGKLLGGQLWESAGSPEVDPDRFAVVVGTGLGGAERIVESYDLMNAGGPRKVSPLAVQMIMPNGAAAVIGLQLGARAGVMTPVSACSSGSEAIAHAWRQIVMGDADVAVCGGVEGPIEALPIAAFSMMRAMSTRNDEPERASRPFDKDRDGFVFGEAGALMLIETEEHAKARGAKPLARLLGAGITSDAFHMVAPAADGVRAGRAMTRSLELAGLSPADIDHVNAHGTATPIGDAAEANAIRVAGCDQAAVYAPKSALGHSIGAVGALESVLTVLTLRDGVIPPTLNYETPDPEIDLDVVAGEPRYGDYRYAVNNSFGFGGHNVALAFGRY

Structure (SMILES)	MIC [1] [µg/mL]	MIC [2] [µg/mL]	MIC99 [3] [µg/mL]	MIC [4] [µg/mL]	MIC [5] [µg/mL]	MIC [6] [µg/mL]	MIC [7] [µg/mL]	MIC [8] [µg/mL]	Ki [9] [µM]	Kd ([9]; Kd (μM) apo-KasA, Table 1, wild-type apo-KasA, fluorescence spectroscopy) [µM]
C=C/C(C)=C/[C@@]1(C)SC(=O)C(CCCCc2ccc(Cl)cc2)=C1O [TLM7]	250 (≈ 689 µM)	64 (≈ 176 µM)	25 (≈ 68.9 µM)	50 (≈ 138 µM)	> 100	81 (≈ 223 µM)	1.73 (≈ 4.77 µM)			
C=C/C(C)=C/[C@@]1(C)SC(=O)C=C1OCC(=O)NCCN=[N+]=[N-] [TLM40]		> 64	> 100	> 64			39.1 (≈ 121 µM)	> 256		
C=C/C(C)=C/[C@@]1(C)SC(=O)C(C(=O)CCCCc2ccc(-c3ccccc3)cc2)=C1O [TLM45]		0.5 (≈ 1.16 µM)	50 (≈ 116 µM)	2 (≈ 4.62 µM)			0.21 (≈ 0.485 µM)	4.58 (≈ 10.6 µM)		
C=C/C(C)=C/[C@@]1(C)SC(=O)C(CCC)=C1O [TLM4, 5R-(+)-3-Propylthiolactomycin]	250 (≈ 1050 µM)	> 200	12.5 (≈ 52.4 µM)	> 200	> 100	250 (≈ 1050 µM)	25.8 (≈ 108 µM)			
C=C/C(C)=C/[C@@]1(C)SC(=O)C(C(=O)CCCCCCCCCCCCCCC)=C1O [TLM43]		0.5 (≈ 1.15 µM)	> 100	1 (≈ 2.3 µM)				1.36 (≈ 3.13 µM)		
C=C/C(C)=C/[C@@]1(C)SC(=O)C(CCCN=[N+]=[N-])=C1O [TLM10]	250 (≈ 895 µM)	> 64	12.5 (≈ 44.7 µM)	> 100		250 (≈ 895 µM)	23.5 (≈ 84.1 µM)		233 ± 7	233 ± 7
C=C/C(C)=C/[C@@]1(C)SC(=O)C(C(=O)CCCCN=[N+]=[N-])=C1O [TLM44]		16 (≈ 49.8 µM)		16 (≈ 49.8 µM)						
C=C/C(C)=C/[C@@]1(C)SC(=O)C(CCCCc2ccc(F)cc2)=C1O [TLM6]	250 (≈ 722 µM)	> 64	25 (≈ 72.2 µM)	75 (≈ 216 µM)	> 100	250 (≈ 722 µM)	3.15 (≈ 9.1 µM)			
C=C/C(C)=C/[C@@]1(C)SC(=O)C(C(=O)CCC)=C1O [TLM38]		16 (≈ 60.1 µM)	12.5 (≈ 46.9 µM)	32 (≈ 120 µM)			1.82 (≈ 6.83 µM)	171 (≈ 644 µM)		
C=C/C(C)=C/[C@@]1(C)SC(=O)C=C1OCC(=O)NCCn1cc(CNC(=O)[C@H](O)C(C)(C)CO)nn1 [TLM26]		> 64	> 100	> 64			159 (≈ 313 µM)	150 (≈ 295 µM)		
C=C/C(C)=C/[C@@]1(C)SC(=O)C(CCCCc2ccc(Br)cc2)=C1O [TLM8]	250 (≈ 614 µM)	32 (≈ 78.6 µM)	25 (≈ 61.4 µM)	50 (≈ 123 µM)	> 100	126 (≈ 309 µM)	2.17 (≈ 5.33 µM)			
C=C/C(C)=C/[C@@]1(C)SC(=O)C(CCCCn2cc(CNC(=O)[C@H](O)C(C)(C)CO)nn2)=C1O [TLM33]	250 (≈ 522 µM)	> 64	> 100	> 100		250 (≈ 522 µM)	250 (≈ 522 µM)			
C=C/C(C)=C/[C@@]1(C)SC(=O)C(CCCCc2ccc(-c3ccccc3)cc2)=C1O [TLM9]	250 (≈ 618 µM)	16 (≈ 39.5 µM)	50 (≈ 124 µM)	25 (≈ 61.8 µM)		145 (≈ 359 µM)	1.97 (≈ 4.88 µM)			
C=C/C(C)=C/[C@@]1(C)SC(=O)C=C1OCC(=O)NCCNC(=O)OC(C)(C)C [TLM41]		> 64	> 100	> 64			54.5 (≈ 137 µM)	> 256		
C=C/C(C)=C/[C@@]1(C)SC(=O)C(CC)=C1O [TLM3, 5R-(+)-3-Ethylthiolactomycin]	145 (≈ 645 µM)	150 (≈ 669 µM)	< 7.8	125 (≈ 557 µM)	> 100	148 (≈ 661 µM)	6.9 (≈ 30.8 µM)			
C=C/C(C)=C/[C@@]1(C)SC(=O)C(CCCCN=[N+]=[N-])=C1O [TLM32]	250 (≈ 852 µM)	> 64	50 (≈ 170 µM)	> 100		250 (≈ 852 µM)	15.3 (≈ 52.3 µM)			
C=C/C(C)=C/[C@@]1(C)SC(=O)C(C(=O)OC)=C1O [TLM37]		> 64	100 (≈ 393 µM)	> 64			58.2 (≈ 229 µM)	160 (≈ 631 µM)		
C=C/C(C)=C/[C@@]1(C)SC(=O)C(CCCCn2cc(CNC(=O)c3ccc(NS(=O)(=O)c4ccc(F)cc4)cc3)nn2)=C1O [TLM34]	250 (≈ 400 µM)	> 64	12.5 (≈ 20 µM)	> 100		250 (≈ 400 µM)	250 (≈ 400 µM)			
C=C/C(C)=C/[C@@]1(C)SC(=O)C=C1O [TLM2, 5R-(+)-3-Demethylthiolactomycin]	250 (≈ 1270 µM)	150 (≈ 764 µM)	> 100	100 (≈ 509 µM)	> 100	148 (≈ 756 µM)	124 (≈ 631 µM)			
C=C/C(C)=C/[C@@]1(C)SC(=O)C(CCc2ccc(C)cc2)=C1O [TLM5]	250 (≈ 795 µM)	> 64	25 (≈ 79.5 µM)	> 100	> 100	250 (≈ 795 µM)	3.45 (≈ 11 µM)			
C=C/C(C)=C/[C@@]1(C)SC(=O)C(C(=O)c2ccccc2C(=O)O)=C1O [TLM39]		32 (≈ 92.9 µM)	> 100	32 (≈ 92.9 µM)			16 (≈ 46.4 µM)	155 (≈ 449 µM)		
C=C/C(C)=C/[C@@]1(C)SC(=O)C(C(=O)C(F)(F)F)=C1O [TLM36]		> 64	> 100	64 (≈ 219 µM)			98.1 (≈ 336 µM)	160 (≈ 547 µM)		
C=C/C(C)=C/[C@@]1(C)SC(=O)C(C(C)=O)=C1O [TLM35]		64 (≈ 269 µM)	12.5 (≈ 52.5 µM)	32 (≈ 134 µM)			8.78 (≈ 36.8 µM)	155 (≈ 649 µM)		
C=C/C(C)=C/[C@@]1(C)SC(=O)C(CCc2ccc(Cl)cc2)=C1O [TLM31]	250 (≈ 747 µM)	64 (≈ 191 µM)	25 (≈ 74.7 µM)	100 (≈ 299 µM)		250 (≈ 747 µM)	3.1 (≈ 9.24 µM)			
C=C/C(C)=C/[C@@]1(C)SC(=O)C=C1OCC(=O)NCCn1cc(CNC(=O)c2ccc(NS(=O)(=O)c3ccc(F)cc3)cc2)nn1 [TLM42]		> 64	100 (≈ 153 µM)	> 64			> 256	178 (≈ 272 µM)		
